These results are taken from US11702404B2, “GLP-1R modulating compounds” (priority 2019, dated 2023).

Data set [1] in a line: Microsomal stability, human liver microsomes (predicted hepatic clearance). Conditions: predicted from in vitro microsomal stability data.
The target of another data set is GLP-1R (Homo sapiens, UniProt P43220). The data set can be described thus: GLP-1R activation: cAMP increase in CHO cells stably expressing GLP-1R. Type of data set: cell-based.
Setting [2] is: cAMP increase, CHO cells stably expressing GLP-1R, 10 point dose response, 30 minutes incubation, read-out: EC50.

Like-named read-outs stand apart in the source and are kept apart here.

Chain of GLP-1R (P43220 24-463): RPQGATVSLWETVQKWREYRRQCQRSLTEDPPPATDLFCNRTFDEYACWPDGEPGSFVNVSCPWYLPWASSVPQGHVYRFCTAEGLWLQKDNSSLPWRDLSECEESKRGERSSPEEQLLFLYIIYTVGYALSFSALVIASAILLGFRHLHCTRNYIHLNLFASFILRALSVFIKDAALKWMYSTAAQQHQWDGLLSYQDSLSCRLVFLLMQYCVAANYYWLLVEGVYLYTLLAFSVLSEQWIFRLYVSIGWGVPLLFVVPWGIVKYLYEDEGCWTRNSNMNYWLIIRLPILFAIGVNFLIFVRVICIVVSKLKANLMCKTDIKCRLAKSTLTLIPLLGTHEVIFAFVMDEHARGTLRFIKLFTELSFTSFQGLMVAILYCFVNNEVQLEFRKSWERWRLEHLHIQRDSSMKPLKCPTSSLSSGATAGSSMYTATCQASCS

With `Cc1conc1Cn1c(Cc2ccc(-c3cccc(OCc4ccc(C#N)cc4F)n3)cc2F)nc2ccc(C(=O)O)cc21` [Example 490, 2-(4-(6-((4-cyano-2-fluorobenzyl)oxy)pyridin-2-yl)-2-fluorobenzyl)-1-((4-methylisoxazol-3-yl)methyl)-1H-benzo[d]imidazole-6-carboxylic acid], the “Predicted Hepatic Clearance (Pred. Cl.)” value in data set [1] was 3.67 mL/min/kg. Besides, at GLP-1R (setting [2]), the EC50 is 5.53 nM.
`N#Cc1ccc(COc2cccc(-c3ccc(Cc4nc5ccc(C(=O)O)cc5n4Cc4cn[nH]c4)c(F)c3)n2)c(F)c1` [Example 491, 1-((1H-pyrazol-4-yl)methyl)-2-(4-(6-((4-cyano-2-fluorobenzyl)oxy)pyridin-2-yl)-2-fluorobenzyl)-1H-benzo[d]imidazole-6-carboxylic acid]: in data set [1], the “Predicted Hepatic Clearance (Pred. Cl.)” value was 12.7 mL/min/kg. Moreover, the EC50 at GLP-1R (setting [2]) amounted to 19.4 nM.
For `N#Cc1ccc(COc2cccc(-c3ccc(Cc4nc5c(F)cc(C(=O)O)cc5n4C[C@@H]4CCO4)cc3F)n2)c(F)c1` [Example 492, (S)-2-(4-(6-((4-cyano-2-fluorobenzyl)oxy)pyridin-2-yl)-3-fluorobenzyl)-4-fluoro-1-(oxetan-2-ylmethyl)-1H-benzo[d]imidazole-6-carboxylic acid], in that order: less than 1.83 mL/min/kg and 5.16 nM.
`COCCn1c(Cc2ccc(-c3cccc(OCc4nccnc4OC)n3)cc2F)nc2ccc(C(=O)O)cc21` [Example 493, 2-(2-fluoro-4-(6-((3-methoxypyrazin-2-yl)methoxy)pyridin-2-yl)benzyl)-1-(2-methoxyethyl)-1H-benzo[d]imidazole-6-carboxylic acid]: the “Predicted Hepatic Clearance (Pred. Cl.)” value in data set [1] is 19.2 mL/min/kg. In addition, the EC50 at GLP-1R (setting [2]) was found to be 255 nM.
Taken in the same sequence, the figures for `COCCn1c(Cc2ccc(-c3cccc(O[C@@H](C)c4ccccc4)n3)cc2F)nc2ccc(C(=O)O)cc21` [Example 494, (S)-2-(2-fluoro-4-(6-(1-phenylethoxy)pyridin-2-yl)benzyl)-1-(2-methoxyethyl)-1H-benzo[d]imidazole-6-carboxylic acid] were 13.2 mL/min/kg and 4550 nM.
For `COCCn1c(Cc2ccc(-c3cccc(OCc4cccc(S(C)(=O)=O)c4)n3)cc2F)nc2ccc(C(=O)O)cc21` [Example 495, 2-(2-fluoro-4-(6-((3-(methylsulfonyl)benzyl)oxy)pyridin-2-yl)benzyl)-1-(2-methoxyethyl)-1H-benzo[d]imidazole-6-carboxylic acid], in that order: 5.83 mL/min/kg and 777 nM.
`COCCn1c(Cc2ccc(-c3cccc(OCc4ccccc4COC)n3)cc2F)nc2ccc(C(=O)O)cc21` [Example 496, 2-(2-fluoro-4-(6-((2-(methoxymethyl)benzyl)oxy)pyridin-2-yl)benzyl)-1-(2-methoxyethyl)-1H-benzo[d]imidazole-6-carboxylic acid]: in data set [1], the “Predicted Hepatic Clearance (Pred. Cl.)” value was 18.2 mL/min/kg. For the same compound, at GLP-1R (setting [2]), the EC50 is 2000 nM.
As to `COCCn1c(Cc2ccc(-c3cccc(OCc4cccc(C#N)c4)n3)cc2F)nc2ccc(C(=O)O)cc21` [Example 497, 2-(4-(6-((3-cyanobenzyl)oxy)pyridin-2-yl)-2-fluorobenzyl)-1-(2-methoxyethyl)-1H-benzo[d]imidazole-6-carboxylic acid], the “Predicted Hepatic Clearance (Pred. Cl.)” value in data set [1] is 5.33 mL/min/kg. Also, the EC50 at GLP-1R (setting [2]) stood at 1350 nM.
Take `COCCn1c(Cc2ccc(-c3cccc(OCc4ccc(C#N)cc4)n3)cc2F)nc2ccc(C(=O)O)cc21` [Example 499, 2-(4-(6-((4-cyanobenzyl)oxy)pyridin-2-yl)-2-fluorobenzyl)-1-(2-methoxyethyl)-1H-benzo[d]imidazole-6-carboxylic acid]: the “Predicted Hepatic Clearance (Pred. Cl.)” value in data set [1] was 3.5 mL/min/kg. Also, the EC50 at GLP-1R (EC50 (nM)) was determined as 8.18 nM.
For the compound `COCCn1c(Cc2ccc(-c3cccc(OCc4ccccc4-c4ccccc4)n3)cc2F)nc2ccc(C(=O)O)cc21` [Example 500, 2-(4-(6-([1,1′-biphenyl]-2-ylmethoxy)pyridin-2-yl)-2-fluorobenzyl)-1-(2-methoxyethyl)-1H-benzo[d]imidazole-6-carboxylic acid], in data set [1], the “Predicted Hepatic Clearance (Pred. Cl.)” value was 9.67 mL/min/kg. For the same compound, the EC50 at GLP-1R (setting [2]) stood at 474 nM.
With `COCCn1c(Cc2ccc(-c3cccc(OCc4ccccc4)n3)cc2F)nc2ccc(C(=O)O)cc21` [Example 501, 2-(4-(6-(benzyloxy)pyridin-2-yl)-2-fluorobenzyl)-1-(2-methoxyethyl)-1H-benzo[d]imidazole-6-carboxylic acid], the “Predicted Hepatic Clearance (Pred. Cl.)” value in data set [1] is 11.5 mL/min/kg. In addition, the EC50 at GLP-1R (setting [2]) amounted to 102 nM.
On to `COCCn1c(Cc2ccc(-c3cccc(OCn4ccc(C(N)=O)cc4=O)n3)cc2F)nc2ccc(C(=O)O)cc21` [Example 502, 2-(4-(6-((4-carbamoyl-2-oxopyridin-1(2H)-yl)methoxy)pyridin-2-yl)-2-fluorobenzyl)-1-(2-methoxyethyl)-1H-benzo[d]imidazole-6-carboxylic acid], for which the “Predicted Hepatic Clearance (Pred. Cl.)” value in data set [1] was 2.67 mL/min/kg. The EC50 at GLP-1R (setting [2]) worked out at 2380 nM.
As for `COCCn1c(Cc2ccc(-c3cccc(OCc4cccc(-c5ccccc5)c4)n3)cc2F)nc2ccc(C(=O)O)cc21` [Example 504, 2-(4-(6-([1,1′-biphenyl]-3-ylmethoxy)pyridin-2-yl)-2-fluorobenzyl)-1-(2-methoxyethyl)-1H-benzo[d]imidazole-6-carboxylic acid], the “Predicted Hepatic Clearance (Pred. Cl.)” value in data set [1] is 3.5 mL/min/kg. Moreover, the EC50 on GLP-1R (setting [2]) amounted to 28.5 nM.
Regarding `COCCn1c(Cc2ccc(-c3cccc(OCc4cccc(OC(F)F)c4)n3)cc2F)nc2ccc(C(=O)O)cc21` [Example 505, 2-(4-(6-((3-(difluoromethoxy)benzyl)oxy)pyridin-2-yl)-2-fluorobenzyl)-1-(2-methoxyethyl)-1H-benzo[d]imidazole-6-carboxylic acid], the “Predicted Hepatic Clearance (Pred. Cl.)” value in data set [1] was less than 1.83 mL/min/kg. The EC50 on GLP-1R (setting [2]) stood at 41.2 nM.
For `COCCn1c(Cc2ccc(-c3cccc(OCc4ccccc4NC(=O)OC(C)(C)C)n3)cc2F)nc2ccc(C(=O)O)cc21` [Example 506, 2-(4-(6-((2-((tert-butoxycarbonyl)amino)benzyl)oxy)pyridin-2-yl)-2-fluorobenzyl)-1-(2-methoxyethyl)-1H-benzo[d]imidazole-6-carboxylic acid], in that order: 12.5 mL/min/kg and 2180 nM.
On to `COCCn1c(Cc2ccc(-c3cccc(OCc4ccccc4C(F)F)n3)cc2F)nc2ccc(C(=O)O)cc21` [Example 507, 2-(4-(6-((2-(difluoromethyl)benzyl)oxy)pyridin-2-yl)-2-fluorobenzyl)-1-(2-methoxyethyl)-1H-benzo[d]imidazole-6-carboxylic acid], for which the “Predicted Hepatic Clearance (Pred. Cl.)” value in data set [1] was 19.2 mL/min/kg. Besides, the EC50 at GLP-1R (setting [2]) turned out to be 361 nM.
Taken in the same sequence, the figures for `COCCn1c(Cc2ccc(-c3cccc(OCc4ccc(C(F)(F)F)cc4)n3)cc2F)nc2ccc(C(=O)O)cc21` [Example 508, 2-(2-fluoro-4-(6-((4-(trifluoromethyl)benzyl)oxy)pyridin-2-yl)benzyl)-1-(2-methoxyethyl)-1H-benzo[d]imidazole-6-carboxylic acid] were 2.5 mL/min/kg and 16.5 nM.
Taken in the same sequence, the figures for `COCCn1c(Cc2ccc(-c3cccc(OCc4cccc(COC)c4)n3)cc2F)nc2ccc(C(=O)O)cc21` [Example 509, 2-(2-fluoro-4-(6-((3-(methoxymethyl)benzyl)oxy)pyridin-2-yl)benzyl)-1-(2-methoxyethyl)-1H-benzo[d]imidazole-6-carboxylic acid] were 12 mL/min/kg and 102 nM.
In the case of `COCCn1c(Cc2ccc(-c3cccc(OCc4cccnc4OC)n3)cc2F)nc2ccc(C(=O)O)cc21` [Example 511, 2-(2-fluoro-4-(6-((2-methoxypyridin-3-yl)methoxy)pyridin-2-yl)benzyl)-1-(2-methoxyethyl)-1H-benzo[d]imidazole-6-carboxylic acid], the “Predicted Hepatic Clearance (Pred. Cl.)” value in data set [1] was 18.7 mL/min/kg. Moreover, at GLP-1R (setting [2]), the EC50 was determined as 29.7 nM.
Taken in the same sequence, the figures for `COCCn1c(Cc2ccc(-c3cccc(OCc4nccn4C)n3)cc2F)nc2ccc(C(=O)O)cc21` [Example 512, 2-(2-fluoro-4-(6-((1-methyl-1H-imidazol-2-yl)methoxy)pyridin-2-yl)benzyl)-1-(2-methoxyethyl)-1H-benzo[d]imidazole-6-carboxylic acid] were 7.67 mL/min/kg and 6560 nM.
Taken in the same sequence, the figures for `COCCn1c(Cc2ccc(-c3cccc(OCn4ccc(C#N)cc4=O)n3)cc2F)nc2ccc(C(=O)O)cc21` [Example 513, 2-(4-(6-((4-cyano-2-oxopyridin-1(2H)-yl)methoxy)pyridin-2-yl)-2-fluorobenzyl)-1-(2-methoxyethyl)-1H-benzo[d]imidazole-6-carboxylic acid] were 5.17 mL/min/kg and 55.1 nM.
For the compound `COCCn1c(Cc2ccc(-c3cccc(OCc4ccccc4F)n3)cc2F)nc2ccc(C(=O)O)cc21` [Example 514, 2-(2-fluoro-4-(6-((2-fluorobenzyl)oxy)pyridin-2-yl)benzyl)-1-(2-methoxyethyl)-1H-benzo[d]imidazole-6-carboxylic acid], in data set [1], the “Predicted Hepatic Clearance (Pred. Cl.)” value was 15.2 mL/min/kg. In addition, the EC50 on GLP-1R (setting [2]) was determined as 60.8 nM.
Take `COCCn1c(Cc2ccc(-c3cccc(O[C@H](C)c4ccccc4)n3)cc2F)nc2ccc(C(=O)O)cc21` [Example 515, (R)-2-(2-fluoro-4-(6-(1-phenylethoxy)pyridin-2-yl)benzyl)-1-(2-methoxyethyl)-1H-benzo[d]imidazole-6-carboxylic acid]: the “Predicted Hepatic Clearance (Pred. Cl.)” value in data set [1] is 7.5 mL/min/kg. Also, the EC50 at GLP-1R (setting [2]) stood at 876 nM.
For `COCCn1c(Cc2ccc(-c3cccc(OCc4ccccc4NS(C)(=O)=O)n3)cc2F)nc2ccc(C(=O)O)cc21` [Example 516, 2-(2-fluoro-4-(6-((2-(methylsulfonamido)benzyl)oxy)pyridin-2-yl)benzyl)-1-(2-methoxyethyl)-1H-benzo[d]imidazole-6-carboxylic acid], in that order: less than 1.83 mL/min/kg and 2460 nM.
